Results: patent publication US5750782A, “Nitroaniline derivatives and their use as anti-tumour agents” (priority 1996, dated 1998)

Columns and labels:
UV4 cells = experiment: Clonogenic assay, UV4 cells (CT10), aerobic and hypoxic; type: cell-based; conditions: for CT10 ratio (air/N2): UV4 cells, aerobic CT10/hypoxic CT10; for CT10 (UV4): air, concentration x time to reduce UV4 cell survival to 10% of control
From the text: The product (in μM-hr) of the drug concentration times the exposure time to reduce cell survival to 10% of control values in the clonogenic assay.
Ratio of CT10 values after exposure of UV4 cells as detailed above under either aerobic (air) or hypoxic (N2) conditions (=aerobic CT10 /hypoxic CT10).

AA8 = experiment: Growth inhibition (IC50), AA8 cells, aerobic; type: cell-based; conditions: 18 h exposure
Protocol: (§1) Growth inhibition studies were performed as described in detail elsewhere (W.R. Wilson, R.F. Anderson and W.A Denny. J Med. Chem., 1989, 32, 23; G.J. Finlay, B.C. Baguley and W.R. Wilson. Anal Biochem., 1984, 139, 172.), using 200 viable AA8 or 300 viable UV4 cells plus 5000 lethally-irradiated AA8 feeder cells per well in 96-well tissue culture dishes. AA8 and UV4 cells were maintained in logarithmic-phase growth in […] tissue culture flasks with subculture twice weekly by trypsinization. The growth medium was antibiotic-free α-MEM with 10% v/v heat-inactivated ([…], 40 min) fetal calf serum. Doubling times were approximately 14h for AA8 and 15h for UV4 cells.

AA8 and UV4 cell lines = experiment: Ratio of IC50 values against AA8 and UV4 cell lines (HFair); type: cell-based; conditions: 18 h exposure
Protocol: as §1
Ratio of IC50 values for a compound after exposure as detailed above against AA8 and UV4 cell lines (HF=IC50 (AA8)/IC50 (UV4)).

UV4 cell line = experiment: Ratio of IC50 values against UV4 cell line in presence and absence of E. coli nitroreductase enzyme NTR-2; type: cell-based; conditions: air, ratio of IC50 in presence and absence of E. coli nitroreductase NTR-2, 1080 min
Protocol: as §1
Ratio of IC50 values for a compound after exposure as detailed above against the UV4 cell line in the presence and absence of the E. coli nitroreductase enzyme NTR-2.

UV4 = experiment: Growth inhibition (IC50), UV4 cells, aerobic; type: cell-based; conditions: air, 18 h exposure
Protocol: as §1

V79 cells = conditions: +Nitroreductase alone (2 μg/ml); 2 h, 37° C
Protocol: The nitroreductase concentration was 2 μg/ml and NADH was used as a co-factor. The initial cell density was 2×10^5 /mL.

| Molecule | CT10 ratio (air/N2) (UV4 cells) | CT10 (UV4) (UV4 cells) [μM-h] | IC50 (AA8; air) [µM] | HF (air) = IC50 (AA8)/IC50 (UV4) (AA8 and UV4 cell lines) | HF (NR-2) (UV4 cell line) | IC50 (UV4) [µM] | IC50 (AA8; Cricetulus griseus, CHO-AA8, air) [µM] | IC50 (UV4; Cricetulus griseus) [µM] | % SURVIVAL (V79 cells) [%] |
| --- | --- | --- | --- | --- | --- | --- | --- | --- | --- |
| CN(C)C(=O)c1cc(N(CCCl)CCCl)c([N+](=O)[O-])cc1[N+](=O)[O-] [Compound 9, N,N-dimethyl [N,N-bis(2-chloroethyl)amino]-2,4-dinitrobenzainide] | > 20 | > 3500 | 310 | 1.4 |  |  |  |  |  |
| NC(=O)c1cc(N(CCBr)CCBr)c([N+](=O)[O-])cc1[N+](=O)[O-] [Compound 2, 5-[N,N-bis(2-bromoethyl)amino]-2,4-dinitrobenzamide] | 20 | 160 | 57 | 7.5 | 32.3 | 10.9 |  |  |  |
| CN(C)CCNC(=O)c1cc([N+](=O)[O-])c(N(CCCl)CCCl)c([N+](=O)[O-])c1 [Compound 24, N-(N,N-dimethylaminoethyl) 4-[N,N-bis(2-chloroethyl)amino]-3,5-dinitrobenzamide] | > 1 | > 273 | 62 | 2.0 |  |  |  |  |  |
| O=C(O)CCNC(=O)c1cc(N(CCCl)CCCl)c([N+](=O)[O-])cc1[N+](=O)[O-] [Compound 15, N-(2-carboxyethyl) 5-[N,N-bis(2-chloroethyl)amino]-2,4-dinitrobenzamide] | 2 | 14000 | 6100 | 1.1 |  |  |  |  |  |
| CS(=O)(=O)OCCN(CCOS(C)(=O)=O)c1cc(C(N)=O)c([N+](=O)[O-])cc1[N+](=O)[O-] [Compound 4, 5-[N,N-bis(2-methanesulfonoxyethyl)amino]-2,4-dinitrobenzamide] | 17 | 1200 |  |  | 10.0 |  | > 200 | 99 |  |
| NC(=O)c1c([N+](=O)[O-])ccc(N(CCCl)CCCl)c1[N+](=O)[O-] [Compound 21, 3-[N,N-bis(2-chloroethyl)amino]-2,6-dinitrobenzamide] | > 3 | > 300 | > 240 | > 2 |  |  |  |  |  |
| CN(C)CCNC(=O)c1cc([N+](=O)[O-])cc([N+](=O)[O-])c1N(CCCl)CCCl [Compound 20, N-(N,N-dimethylaminoethyl) 2-[N,N-bis(2-chloroethyl)amino]-3,5-dinitrobenzamide] | 36 | 1200 | 150 | 14 |  |  |  |  |  |
| NC(=O)c1cc([N+](=O)[O-])cc([N+](=O)[O-])c1N(CCCl)CCCl [Compound 19, 2-[N,N-bis(2-chloroethyl)amino]-3,5-dinitrobenzamide] | > 5 | > 300 | > 100 | ca. 3 |  |  |  |  |  |
| NC(=S)c1cc(N(CCCl)CCCl)c([N+](=O)[O-])cc1[N+](=O)[O-] [Compound 13, 5-[N,N-bis(2-chloroethyl)amino]-2,4-dinitrothiobenzamide] | > 3 | > 60 | > 25 | > 2 |  |  |  |  |  |
| NC(=O)c1cc(N(CCI)CCI)c([N+](=O)[O-])cc1[N+](=O)[O-] [Compound 3, 5-[N,N-bis(2-iodoethyl)amino]-2,4-dinitrobenzamide] | 42 | 170 | 34 | 2.6 | 73.8 | 15 |  |  |  |
| O=C(c1cc(N(CCCl)CCCl)c([N+](=O)[O-])cc1[N+](=O)[O-])N1CCOCC1 [Compound 10, N-morpholino [N,N-bis(2-chloroethyl)amino]-2,4-dinitrobenzamiide] | 1.6 | 156 | 264 | 23 |  |  |  |  |  |
| N#Cc1cc(N(CCCl)CCCl)c([N+](=O)[O-])cc1[N+](=O)[O-] [Compound 7, 5-[N,N-bis(2-chloroethyl)aminol]-2,4-dinitrobenzonitrile] | 8.5 | 86 | 24 | 6.8 | 9.2 | 2.3 |  |  |  |
| CN(C)CCNC(=O)c1c([N+](=O)[O-])ccc(N(CCCl)CCCl)c1[N+](=O)[O-] [Compound 22, N-(N,N-dimethylaminoethyl) 3-[N,N-bis(2-chloroethyl)amino]-2,6-dinitrobenzamide] | 130 | 3600 | 426 | 3.2 |  |  |  |  |  |
| O=C(NCCN1CCOCC1)c1cc(N(CCCl)CCCl)c([N+](=O)[O-])cc1[N+](=O)[O-] [Compound 12, N-[2-(morpholino)ethyl][N,N-bis(2-chloroethyl)amino]-2,4-dinitrobenzainide] | 45 | 3700 | 920 | 3.0 |  |  |  |  |  |
| NC(=O)c1cc([N+](=O)[O-])c(N(CCCl)CCCl)c([N+](=O)[O-])c1 [Compound 23, 4-[N,N-bis(2-chloroethyl)amino]-3,5-dinitrobenzamide] | > 1 | > 450 | 97 | 1.4 |  |  |  |  |  |
| O=C(NCC(O)CO)c1cc(N(CCCl)CCCl)c([N+](=O)[O-])cc1[N+](=O)[O-] (centres unmarked) [Compound 17, N-(2,3-dihydroxypropyl)5-[N,N-bis(2-chloroethyl)amino]-2,4-dinitrobenzarnide] | 14 | 3340 | 1790 | 3.2 |  |  |  |  |  |
| O=C(O)c1cc(N(CCCl)CCCl)c([N+](=O)[O-])cc1[N+](=O)[O-] [Compound 6, 5-[N,N-bis(2-chloroethyl)amino]-2,4-dinitrobenzoicacid] | > 2 | > 30000 | 10600 | 1.5 | 0.76 | 317 |  |  |  |
| C[N+](C)([O-])CCNC(=O)c1cc(N(CCCl)CCCl)c([N+](=O)[O-])cc1[N+](=O)[O-] [Compound 14, N-(N^1,N^1-dimethylaminoethyl) [N,N-bis(2-chloroethyl)amino]-2,4-dinitrobenzamide N^1-oxide] | < 10 | < 14400 | 7300 | 1.7 |  |  |  |  |  |
| NS(=O)(=O)c1cc(N(CCCl)CCCl)c([N+](=O)[O-])cc1[N+](=O)[O-] [Compound 18, 5-[N,N-bis(2-chloroethyl)amino]-2,4-dinitrobenzenesulfonamide] |  |  | 3 |  |  |  |  |  |  |
| Nitroreductase: E. coli nitroreductase (protein, UniProt P38489 1-217, looked up) Oxygen-insensitive NAD(P)H …: MDIISVALKRHSTKAFDASKKLTPEQAEQIKTLLQYSPSSTNSQPWHFIVASTEEGKARVAKSAAGNYVFNERKMLDASHVVVFCAKTAMDDVWLKLVVDQEDADGRFATPEAKAANDKGRKFFADMHRKDLHDDAEWMAKQVYLNVGNFLLGVAALGLDAVPIEGFDAAILDAEFGLKEKGYTSLVVVPVGHHSVEDFNATLPKSRLPQNITLTEV |  |  |  |  |  |  |  |  | 94 |
